Laboratory results published in patent US11090319B2, “Therapeutic uses of pharmaceutical compositions comprising cyclic boronic acid ester derivatives” (Melinta Subsidiary Corp., priority 2010, dated 2021).

Legend:
[1] = tested on: strains expressing KPC alone or in combination with additional beta-lactamases; assay: microbe, parasite or virus in culture; assay type: cell-based
[2] = tested on: strains expressing class A ESBLs; assay type: cell-based
Protocol: Selected β-lactamase inhibitors were also tested for their ability to potentiate the monobactam tigemonam.

[3] = Klebsiella pneumoniae KP 1008, KPC-2, Compound 5 0.31 mg/L
[4] = Klebsiella pneumoniae KP 1008, KPC-2, Compound 5 0.625 mg/L
[5] = Klebsiella pneumoniae KP 1008, KPC-2, Compound 5 […]
[6] = Klebsiella pneumoniae KP1082, KPC-2 SHV-1, Compound 5 0.31 mg/L
[7] = Klebsiella pneumoniae KP1082, KPC-2 SHV-1, Compound 5 0.625 mg/L
[8] = Klebsiella pneumoniae KP1082, KPC-2 SHV-1, Compound 5 5 mg/L
[9] = Klebsiella pneumoniae KP1082, KPC-2 SHV-1, Compound 5 10 mg/L
[10] = Klebsiella pneumoniae KP1082, KPC-2 SHV-1, Compound 5 […]
[11] = Klebsiella pneumoniae KP1083, KPC-3, SHV-1, TEM-1, Compound 5 10 mg/L
[12] = Klebsiella pneumoniae KP1083, KPC-3, SHV-1, TEM-1, Compound 5 […]
[13] = Klebsiella pneumoniae KP1084, KPC-3, SHV-11, TEM-1, Compound 5 5 mg/L
[14] = Klebsiella pneumoniae KP1084, KPC-3, SHV-11, TEM-1, Compound 5 10 mg/L
[15] = Klebsiella pneumoniae KP 1087, KPC-2, CTX-M-15, SHV-11, TEM-1, Compound 5 0.31 mg/L
[16] = Klebsiella pneumoniae KP 1087, KPC-2, CTX-M-15, SHV-11, TEM-1, Compound 5 0.625 mg/L
[17] = Klebsiella pneumoniae KP 1087, KPC-2, CTX-M-15, SHV-11, TEM-1, Compound 5 5 mg/L
[18] = Klebsiella pneumoniae KP 1087, KPC-2, CTX-M-15, SHV-11, TEM-1, Compound 5 10 mg/L
[19] = Klebsiella pneumoniae KP1088, KPC-3, SHV-11, TEM-1, Compound 5 0.31 mg/L
[20] = Klebsiella pneumoniae KP1088, KPC-3, SHV-11, TEM-1, Compound 5 0.625 mg/L
[21] = Klebsiella pneumoniae KP1088, KPC-3, SHV-11, TEM-1, Compound 5 5 mg/L
[22] = Klebsiella pneumoniae KP1088, KPC-3, SHV-11, TEM-1, Compound 5 10 mg/L

O=C(O)C[C@@H]1CC[C@H](NC(=O)Cc2cccs2)B(O)O1 [Compound 5, 2-((3R,6S)-2-hydroxy-3-(2-(thiophen-2-yl)acetamido)-1,2-oxaborinan-6-yl)acetic acid]
MIC of Biapenem ([1]; Klebsiella pneumoniae KP 1004, KPC-2, Compound 5 […]): X (MIC of less than 0.5 mg/L)
MIC of Biapenem [1, 3]: X (MIC of less than 0.5 mg/L)
MIC of Doripenem [1, 3]: X (MIC of less than 0.5 mg/L)
MIC of Ertapenem [1, 3]: X (MIC of less than 0.5 mg/L)
MIC of Biapenem [1, 4]: X (MIC of less than 0.5 mg/L)
MIC of Doripenem [1, 4]: X (MIC of less than 0.5 mg/L)
MIC of Ertapenem [1, 4]: X (MIC of less than 0.5 mg/L)
MIC of Biapenem [1, 5]: X (MIC of less than 0.5 mg/L)
MIC of Doripenem [1, 5]: X (MIC of less than 0.5 mg/L)
MIC of Ertapenem [1, 5]: X (MIC of less than 0.5 mg/L)
MIC of Biapenem [1, 6]: X (MIC of less than 0.5 mg/L)
MIC of Doripenem [1, 6]: X (MIC of less than 0.5 mg/L)
MIC of Ertapenem [1, 6]: X (MIC of less than 0.5 mg/L)
MIC of Biapenem [1, 7]: X (MIC of less than 0.5 mg/L)
MIC of Doripenem [1, 7]: X (MIC of less than 0.5 mg/L)
MIC of Ertapenem [1, 7]: X (MIC of less than 0.5 mg/L)
MIC of Biapenem [1, 8]: X (MIC of less than 0.5 mg/L)
MIC of Doripenem [1, 8]: X (MIC of less than 0.5 mg/L)
MIC of Ertapenem [1, 8]: X (MIC of less than 0.5 mg/L)
MIC of Biapenem [1, 9]: X (MIC of less than 0.5 mg/L)
MIC of Doripenem [1, 9]: X (MIC of less than 0.5 mg/L)
MIC of Ertapenem [1, 9]: X (MIC of less than 0.5 mg/L)
MIC of Biapenem [1, 10]: X (MIC of less than 0.5 mg/L)
MIC of Doripenem [1, 10]: X (MIC of less than 0.5 mg/L)
MIC of Ertapenem [1, 10]: X (MIC of less than 0.5 mg/L)
MIC of Doripenem [1, 11]: X (MIC of less than 0.5 mg/L)
MIC of Ertapenem [1, 11]: X (MIC of less than 0.5 mg/L)
MIC of Doripenem [1, 12]: Y (MIC of 0.5 mg/L to 4 mg/L)
MIC of Ertapenem [1, 12]: Y (MIC of 0.5 mg/L to 4 mg/L)
MIC of Ertapenem ([1]; Klebsiella pneumoniae KP1084, KPC-3, SHV-11, TEM-1, Compound 5 0.31 mg/L): Z (MIC of greater than 4 mg/L)
MIC of Ertapenem ([1]; Klebsiella pneumoniae KP1084, KPC-3, SHV-11, TEM-1, Compound 5 0.625 mg/L): Z (MIC of greater than 4 mg/L)
MIC of Biapenem [1, 13]: X (MIC of less than 0.5 mg/L)
MIC of Doripenem [1, 13]: Y (MIC of 0.5 mg/L to 4 mg/L)
MIC of Ertapenem [1, 13]: Y (MIC of 0.5 mg/L to 4 mg/L)
MIC of Biapenem [1, 14]: X (MIC of less than 0.5 mg/L)
MIC of Doripenem [1, 14]: X (MIC of less than 0.5 mg/L)
MIC of Ertapenem [1, 14]: Y (MIC of 0.5 mg/L to 4 mg/L)
MIC of Ertapenem ([1]; Klebsiella pneumoniae KP1084, KPC-3, SHV-11, TEM-1, Compound 5 […]): Z (MIC of greater than 4 mg/L)
MIC of Biapenem [1, 15]: Z (MIC of greater than 4 mg/L)
MIC of Doripenem [1, 15]: Z (MIC of greater than 4 mg/L)
MIC of Ertapenem [1, 15]: Z (MIC of greater than 4 mg/L)
MIC of Biapenem [1, 16]: Z (MIC of greater than 4 mg/L)
MIC of Doripenem [1, 16]: Z (MIC of greater than 4 mg/L)
MIC of Ertapenem [1, 16]: Z (MIC of greater than 4 mg/L)
MIC of Biapenem [1, 17]: X (MIC of less than 0.5 mg/L)
MIC of Doripenem [1, 17]: Y (MIC of 0.5 mg/L to 4 mg/L)
MIC of Ertapenem [1, 17]: Y (MIC of 0.5 mg/L to 4 mg/L)
MIC of Biapenem [1, 18]: X (MIC of less than 0.5 mg/L)
MIC of Doripenem [1, 18]: X (MIC of less than 0.5 mg/L)
MIC of Ertapenem [1, 18]: Y (MIC of 0.5 mg/L to 4 mg/L)
MIC of Ertapenem ([1]; Klebsiella pneumoniae KP 1087, KPC-2, CTX-M-15, SHV-11, TEM-1, Compound 5 […]): Z (MIC of greater than 4 mg/L)
MIC of Biapenem [1, 19]: X (MIC of less than 0.5 mg/L)
MIC of Doripenem [1, 19]: Y (MIC of 0.5 mg/L to 4 mg/L)
MIC of Ertapenem [1, 19]: Y (MIC of 0.5 mg/L to 4 mg/L)
MIC of Biapenem [1, 20]: X (MIC of less than 0.5 mg/L)
MIC of Doripenem [1, 20]: X (MIC of less than 0.5 mg/L)
MIC of Ertapenem [1, 20]: X (MIC of less than 0.5 mg/L)
MIC of Biapenem [1, 21]: X (MIC of less than 0.5 mg/L)
MIC of Doripenem [1, 21]: X (MIC of less than 0.5 mg/L)
MIC of Ertapenem [1, 21]: X (MIC of less than 0.5 mg/L)
MIC of Biapenem [1, 22]: X (MIC of less than 0.5 mg/L)
MIC of Doripenem [1, 22]: X (MIC of less than 0.5 mg/L)
MIC of Ertapenem [1, 22]: X (MIC of less than 0.5 mg/L)
MPC4 CTX-M-14 KP1005 [2]: Z (key: X: MPC@4 of less than 2 μg/mL; Y: MPC@4 of 2 μg/mL to 10 μg/mL; Z: MPC@4 of greater than 10 μg/mL)
MPC4 CTX-M-15 KP1009 [2]: Z (key: X: MPC@4 of less than 2 μg/mL; Y: MPC@4 of 2 μg/mL to 10 μg/mL; Z: MPC@4 of greater than 10 μg/mL)
MPC4 SHV-5 ec308 [2]: Z (key: X: MPC@4 of less than 2 μg/mL; Y: MPC@4 of 2 μg/mL to 10 μg/mL; Z: MPC@4 of greater than 10 μg/mL)
MPC4 SHV-12 KP1010 [2]: Z (key: X: MPC@4 of less than 2 μg/mL; Y: MPC@4 of 2 μg/mL to 10 μg/mL; Z: MPC@4 of greater than 10 μg/mL)
MPC4 SHV-18 KP1012 [2]: Z (key: X: MPC@4 of less than 2 μg/mL; Y: MPC@4 of 2 μg/mL to 10 μg/mL; Z: MPC@4 of greater than 10 μg/mL)
MPC4 TEM-10 EC1009 [2]: Z (key: X: MPC@4 of less than 2 μg/mL; Y: MPC@4 of 2 μg/mL to 10 μg/mL; Z: MPC@4 of greater than 10 μg/mL)
MPC4 TEM-10 ec302 [2]: Z (key: X: MPC@4 of less than 2 μg/mL; Y: MPC@4 of 2 μg/mL to 10 μg/mL; Z: MPC@4 of greater than 10 μg/mL)
MPC4 TEM-26 ec304 [2]: Z (key: X: MPC@4 of less than 2 μg/mL; Y: MPC@4 of 2 μg/mL to 10 μg/mL; Z: MPC@4 of greater than 10 μg/mL)
